How the values were obtained:
[1] = LNP size and PDI by dynamic light scattering; format: physicochemical; details: for PDI / Size (nm): mRNA LNP, cationic lipid/DSPC/cholesterol/PEG-lipid 50:10:38.5:1.5
Procedure: (§1) In summary, the cationic lipid described herein, DSPC, cholesterol, and PEG-lipid were dissolved in ethanol at a molar ratio of 50:10:38.5:1.5 and diluted in 10 mM to 50 mM citrate buffer at pH 4 with mRNA. Using a microfluidic device, the lipid ethanol solution was mixed with mRNA aqueous solution at a volume ratio of 1:3 and a total flow rate ranging from 6-30 mL/min, preparing LNPs with a total lipid to mRNA weight ratio of approximately 10:1 to 30:1. Ethanol was removed by dialysis and replaced with PBS. Finally, the lipid nanoparticles were filtered through a 0.22 μm sterile filter.
(§2) The size of lipid nanoparticles was measured by dynamic light scattering using a Malvern Zetasizer Nano ZS (Malvern, UK) with a 90° scattering detection mode. The encapsulation efficiency of lipid nanoparticles was determined using the Quant-it Ribogreen RNA Quantitation Kit (Thermo Fisher Scientific, UK) according to the manufacturer's instructions. The apparent pKa of LNP formulations correlates with the delivery efficiency of nucleic acids by LNPs in vivo. The apparent pKa ranges from approximately 5 to 7. An analysis based on fluorescence from 2-(p-tolylamino)-6-naphthalenesulfonic acid (TNS) was used to determine the apparent pKa of formulations. As described above, LNP formulations containing cationic lipid/DSPC/cholesterol/DMG-PEG (50/10/38.5/1.5 mol %) in PBS were prepared. A 300 μM stock solution of TNS in distilled water was prepared. LNP formulations were diluted to 0.1 mg/mL total lipid in 3 mL of buffer solution containing 50 mM sodium citrate, 50 mM sodium phosphate, 50 mM sodium borate, and 30 mM sodium chloride (pH ranged from 3 to 9). […] S-shaped curve best-fit analysis was applied to the fluorescence data, and the pKa value was measured as the pH value producing half-maximal fluorescence intensity.

[2] = LNP encapsulation efficiency (Quant-it Ribogreen); format: physicochemical; details: mRNA LNP, cationic lipid/DSPC/cholesterol/PEG-lipid 50:10:38.5:1.5
Source text: Encapsulation Efficiency: The encapsulation efficiency of a therapeutic and/or prophylactic agent refers to the amount of the therapeutic and/or prophylactic agent encapsulated within or otherwise associated with the nanoparticle composition relative to the initial amount provided during preparation. Encapsulation efficiency is desirably high (such as close to 100%). Encapsulation efficiency can be measured, for example, by comparing the amount of therapeutic and/or prophylactic agent in a solution containing the nanoparticle composition before and after disruption of the nanoparticle composition using one or more organic solvents or detergents. Fluorescence can be used to measure the amount of free therapeutic and/or prophylactic agent (e.g., RNA) in solution. For the nanoparticle compositions described herein, the encapsulation efficiency of the therapeutic and/or prophylactic agent may be at least 50%, such as 50%, 55%, 60%, 65%, 70%, 75%, 80%, 85%, 90%, 91%, 92%, 93%, 94%, 95%, 96%, 97%, 98%, 99%, or 100%. In some embodiments, the encapsulation efficiency may be at least 80%. In certain embodiments, the encapsulation efficiency may be at least 90%.
as §1, §2

LNP zeta potential = format: physicochemical; details: mRNA LNP
Source text: Nanoparticle compositions can be characterized by various methods. For example, the morphology and size distribution of nanoparticle compositions can be examined using microscopy (e.g., transmission electron microscopy or scanning electron microscopy). The zeta potential can be measured using dynamic light scattering or potentiometric titration. Dynamic light scattering can also be used to determine particle size. Instruments such as the Zetasizer Nano ZS (Malvern Instruments Ltd., Malvern, Worcestershire, UK) can also be used to measure multiple characteristics of nanoparticle compositions, such as particle size, polydispersity index, and zeta potential.
[…]: The zeta potential of the nanoparticle composition can indicate the electrophoretic potential of the composition. For example, zeta potential may describe the surface charge of the nanoparticle composition. Nanoparticle compositions with relatively low positive or negative charges are generally desirable, as materials with higher charges may interact undesirably with cells, tissues, and other components in the body. In some embodiments, the zeta potential of the nanoparticle composition may be about −10 mV to about +20 mV, about −10 mV to about +15 mV, about −10 mV to about +10 mV, about −10 mV to about +5 mV, about −10 mV to about 0 mV, about −10 mV to about −5 mV, about −5 mV to about +20 mV, about −5 mV to about +15 mV, about −5 mV to about +10 mV, about −5 mV to about +5 mV, about −5 mV to about 0 mV, about 0 mV to about +20 mV, about 0 mV to about +15 mV, about 0 mV to about +10 mV, about 0 mV to about +5 mV, about +5 mV to about +20 mV, about +5 mV to about +15 mV, or about +5 mV to about +10 mV.

mice = assay: Bioluminescent study, intramuscular injection of F-luc mRNA LNPs; format: in vivo; details: F-luc luminescence flux normalized to MC3; 0.25 mg/kg intramuscular, mice n=3, 6-hour time point
Procedure: The efficacy of nanoparticle compositions was evaluated using bioluminescent studies. A dose of 0.25 mg/kg (mpk) of the formulation was administered to mice (n=3) via intramuscular injection, and bioluminescence was measured at a 6-hour time point. The test lipid nanoparticles from the MC3 formulation were evaluated, and in some cases, controls (e.g., PBS controls) were assessed for comparison.
The characteristics of the test lipid nanoparticles measured from the test groups, including F-luc luminescence intensity, are listed in the table below.

Compound | PDI [1] | Size (nm) [1] [nm] | Encapsulation efficiency (%) [2] [%] | Zeta potential (mV) (LNP zeta potential) | Relative Total flux (mice) | particle sizes by dynamic light scattering (FIG. 22) ([1]; mRNA-loaded LNPs)
CCCCCCC(CCCCCC)OC(=O)CCCCCCCCCNC(=O)C(CCCCCCCCCC(=O)OC(CCCCCC)CCCCCC)N(CCCN(C)C)C(=O)CCCN(C)C (stereo not drawn) [Compound E6] | 0.246 | 81.59 | 96.54 | −6.48 | C (C: ≥0.1 and <1) | 
CCCCCCCCCCCOC(=O)CCCCCN(CCO)CCCCCCCC(=O)OC(CCCCCCCC)CCCCCCCC [SM-102, reference compound] | 0.058 | 89.08 | 96.25 | −1.23 | A (A: ≥2) | approximately 100 nm
CCCCCCC(CCCCCC)OC(=O)CCCCCCCCCNC(=O)C(CCCCCCCCCC(=O)OC(CCCCCC)CCCCCC)N(CCCN(CCO)CCO)C(=O)CCCN(C)CCO (stereo not drawn) [Compound E2] | 0.143 | 78.64 | 91.65 | −9.45 | C (C: ≥0.1 and <1) | 
CCCCCCCC(C(=O)NCCCCCCCCCC(=O)OC(CCCCCC)CCCCCC)N(CCCNc1c(NC)c(=O)c1=O)C(=O)CCCCCCCCCC(=O)OC(CCCCCC)CCCCCC (stereo not drawn) [Compound B22] | 0.165 | 141.8 | 95.03 | −3.48 | B (B: ≥1 and <2) | 
CCCCCCCC(C(=O)NCCCCCCCCCC(=O)OC(CCCCCC)CCCCCC)N(CCN(CO)CO)C(=O)CCCCCCCCCC(=O)OC(CCCCCC)CCCCCC (stereo not drawn) [Compound B7] | 0.116 | 58.86 | 85.36 | −2.80 | A (A: ≥2) | 
CCCCCCCCC(C(=O)NCCCCCCCCCC(=O)OCCCCCC)N(CCCN1CCCC1)C(=O)CCCCCCCCCC(=O)OCCCCCC (stereo not drawn) [Compound A6] | 0.234 | 55.75 | 84.80 | −9.54 | A (A: ≥2) | 
CCCCCC/C=C\CCCCCCCC(C(=O)NCCCCCCCC/C=C\CCCCCCCC)N(CCCN(C)C)C(=O)CCCCCCC/C=C\CCCCCCCC (stereo not drawn) [Compound C8] | 0.24 | 78.44 | 82.17 | −0.77 | A (A: ≥2) | 
CCCCCCCCCCOCCCCCCCC(=O)N(CCCN(C)C)C(CCCCCCCC)C(=O)NCCCCCCCC (stereo not drawn) [Compound A42] | 0.19 | 90.78 | 95.23 | −1.88 | A (A: ≥2) | 
CCCCCCCCC(CCCCCC)COC(=O)CCCCCCCCCNC(=O)C(CCCCCCCC)N(CCCN(C)C)C(=O)CCCCCCCCCC(=O)OCC(CCCCCC)CCCCCCCC (stereo not drawn) [Compound A14] | 0.228 | 89.33 | 94.31 | 4.02 | C (C: ≥0.1 and <1) | 
CCCCCCCC(C(=O)NCCCCCCCCCC(=O)OC(CCCCCC)CCCCCC)N(CCN(CCO)C1CCCCC1)C(=O)CCCCCCCCCC(=O)OC(CCCCCC)CCCCCC (stereo not drawn) [Compound B15] | 0.182 | 87.64 | 95.93 | 2.43 | A (A: ≥2) | 
CCCCCCCCC(C(=O)NCCCCCCCCCC(=O)OCCCCCC)N(CCCN1CCCC1)C(=O)CCCCCCCCCC(=O)OC(CCCCCC)CCCCCC (stereo not drawn) [Compound A5] | 0.13 | 60.62 | 92.48 | −17.73 | D (D: <0.1.) | 
CCCCCC/C=C\CCCCCCCC(C(=O)NCCCCCC)N(CCCN(C)C)C(=O)CCCCCCC(=O)OC(CCCCCCCC)CCCCCCCC (stereo not drawn) [Compound A40] | 0.17 | 75.94 | 93.54 | −0.97 | C (C: ≥0.1 and <1) | 
CCCCCCCCNC(=O)CCCCCNC(=O)C(CCCCCCCC)N(CCCN(C)C)C(=O)CCCCCC(=O)NC(CCCCCCC)CCCCCCC (stereo not drawn) [Compound A31] | 0.22 | 79.94 | 97.50 | −4.31 | B (B: ≥1 and <2) | 
CCCCC/C=C\C/C=C\CCCCCCCCC(CCCCCCCC/C=C\C/C=C\CCCCC)OC(=O)CCCN(C)C [DLin-MC3, reference compound] | 0.036 | 87.75 | 95.24 | −3.25 | B (B: ≥1 and <2) | 
CCCCCCCCNC(=O)C(CCCCCCCC)N(CCCN(CC)CC)C(=O)CCCCCCC(=O)OC(CCCCCCCC)CCCCCCCC (stereo not drawn) [Compound A33] | 0.10 | 79.84 | 94.69 | 0.51 | A (A: ≥2) | 
CCCCCCCCNC(=O)C(CCCCCCCC)N(CCN(CCO)CCO)C(=O)CCCCCCC(=O)OC(CCCCCCCC)CCCCCCCC (stereo not drawn) [Compound B32] | 0.32 | 119.93 | 93.95 | 7.87 | A (A: ≥2) | 

— patent US20260078099A1, “COMPOUND, PREPARATION METHOD THEREOF, AND LIPID NANOPARTICLE AND PHARMACEUTICAL COMPOSITION” (priority 2023, published 2026)
